Literature values in publication PMC4626739 (Toxins, 2015).

Substance: Kalata B1
- resistance to chaotropic agents and proteases: extremely resistant
- thermal stability: highly thermostable
